From patent US20230278995A1, “1,3,4-OXADIAZOLE DERIVATIVE COMPOUNDS AS HISTONE DEACETYLASE 6 INHIBITOR, AND THE PHARMACEUTICAL COMPOSITION COMPRISING THE SAME” (CHONG KUN DANG PHARMACEUTICAL CORP., priority 2020, published 2023)

What was measured:
[1] = molecular target: T1, human recombinant HDAC1 (Homo sapiens, UniProt Q13547); test: HDAC enzyme activity inhibition assay (HDAC Fluorimetric Drug Discovery Kit), HDAC1; assay type: biochemical; settings: human recombinant HDAC1, Fluor de Lys-SIRT1 substrate, 30° C. 60 minutes
T1 construct: purchased Enzo Life Sciences, Inc. BML-SE456
T1 sequence (Q13547 whole entry): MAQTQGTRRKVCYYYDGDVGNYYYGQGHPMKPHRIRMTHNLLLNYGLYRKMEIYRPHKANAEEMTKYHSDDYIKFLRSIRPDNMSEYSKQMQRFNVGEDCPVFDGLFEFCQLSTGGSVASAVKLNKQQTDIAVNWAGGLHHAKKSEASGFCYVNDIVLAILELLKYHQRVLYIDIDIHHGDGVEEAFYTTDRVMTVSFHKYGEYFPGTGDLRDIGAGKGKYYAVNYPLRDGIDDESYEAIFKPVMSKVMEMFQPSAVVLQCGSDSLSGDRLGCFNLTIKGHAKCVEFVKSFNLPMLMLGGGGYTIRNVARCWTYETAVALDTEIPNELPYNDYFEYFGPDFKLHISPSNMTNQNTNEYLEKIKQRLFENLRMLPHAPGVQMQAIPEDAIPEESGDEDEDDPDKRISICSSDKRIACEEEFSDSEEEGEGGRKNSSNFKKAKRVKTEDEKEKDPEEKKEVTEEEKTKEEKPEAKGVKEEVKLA
Method in brief: (§1)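 The preceding reaction ran 60 min at 30 °C with 0.3 μg recombinant human enzyme, HDAC1 or HDAC6 under an identical protocol, and 10 μM Fluor de Lys-SIRT1 substrate, across 5-fold diluted compound.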

[2] = molecular target: T2, human recombinant HDAC6 (Homo sapiens, UniProt Q9UBN7); test: HDAC enzyme activity inhibition assay (HDAC Fluorimetric Drug Discovery Kit), HDAC6; assay type: biochemical; settings: for HDAC6 selectivity (fold): HDAC1 vs HDAC6; for IC50: human recombinant HDAC6, same protocol as HDAC1
T2 construct: purchased Calbiochem Inc. 382180
T2 sequence (Q9UBN7 1-1215): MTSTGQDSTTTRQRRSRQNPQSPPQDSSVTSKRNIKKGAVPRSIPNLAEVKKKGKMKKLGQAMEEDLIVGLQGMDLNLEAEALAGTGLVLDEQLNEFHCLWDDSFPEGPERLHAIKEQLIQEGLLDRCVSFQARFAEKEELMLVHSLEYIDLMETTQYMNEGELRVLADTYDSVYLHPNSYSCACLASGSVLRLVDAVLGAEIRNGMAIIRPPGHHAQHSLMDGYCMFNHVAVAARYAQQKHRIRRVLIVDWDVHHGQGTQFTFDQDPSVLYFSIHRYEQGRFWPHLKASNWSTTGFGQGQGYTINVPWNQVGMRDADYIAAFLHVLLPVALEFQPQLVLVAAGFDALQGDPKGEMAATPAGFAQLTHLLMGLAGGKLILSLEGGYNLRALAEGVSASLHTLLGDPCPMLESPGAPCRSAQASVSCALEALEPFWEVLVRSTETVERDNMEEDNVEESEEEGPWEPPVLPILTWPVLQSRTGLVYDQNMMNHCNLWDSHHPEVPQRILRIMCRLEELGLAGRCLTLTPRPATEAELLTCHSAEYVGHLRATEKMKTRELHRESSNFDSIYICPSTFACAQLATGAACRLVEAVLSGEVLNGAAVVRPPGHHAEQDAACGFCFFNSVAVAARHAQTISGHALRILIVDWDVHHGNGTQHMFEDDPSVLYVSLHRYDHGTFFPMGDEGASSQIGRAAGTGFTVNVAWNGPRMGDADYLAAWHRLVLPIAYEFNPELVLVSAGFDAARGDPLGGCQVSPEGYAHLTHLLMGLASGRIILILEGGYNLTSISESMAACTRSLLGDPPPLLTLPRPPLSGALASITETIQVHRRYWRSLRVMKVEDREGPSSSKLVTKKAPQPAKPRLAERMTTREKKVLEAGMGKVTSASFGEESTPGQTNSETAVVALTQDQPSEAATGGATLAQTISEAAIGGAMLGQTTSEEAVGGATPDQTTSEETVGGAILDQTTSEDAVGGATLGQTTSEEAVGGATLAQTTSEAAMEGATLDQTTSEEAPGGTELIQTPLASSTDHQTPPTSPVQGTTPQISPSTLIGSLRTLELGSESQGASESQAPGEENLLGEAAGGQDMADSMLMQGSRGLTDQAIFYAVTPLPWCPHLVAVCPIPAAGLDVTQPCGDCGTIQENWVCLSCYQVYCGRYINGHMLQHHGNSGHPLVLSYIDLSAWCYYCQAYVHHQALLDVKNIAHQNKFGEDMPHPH
Method in brief: as §1

`O=C(N(Cc1ccc(-c2nnc(C(F)F)o2)cn1)c1cccc(F)c1)C1(F)CN(C2CN(C3CCOC3)C2)C1` (stereo not drawn) [Compound 3397, N-((5-(5-(difluoromethyl)-1,3,4-oxadiazol-2-yl)pyridin-2-yl)methyl)-3-fluoro-N-(3-fluorophenyl)-1′-(tetrahydrofuran-3-yl)-[1,3′-biazetidine]-3-carboxamide] was tested, and the IC50 [1] was 23700 nM, the “HDAC6 selectivity (fold)” value [2] was 1,022 fold and the IC50 [2] was 23.2 nM.
In the case of `O=C(N(Cc1ccc(-c2nnc(C(F)F)o2)cn1)c1cccc(F)c1)C1(F)CN(C2CN(C3CCCCC3)C2)C1` [Compound 3398, 1′-cyclohexyl-N-((5-(5-(difluoromethyl)-1,3,4-oxadiazol-2-yl)pyridin-2-yl)methyl)-3-fluoro-N-(3-fluorophenyl)-[1,3′-biazetidine]-3-carboxamide], the IC50 [1] is reported as 27500 nM, the “HDAC6 selectivity (fold)” value [2] is reported as 1,374 fold and the IC50 [2] is reported as 20 nM.
In the case of `O=C(N(Cc1ccc(-c2nnc(C(F)F)o2)cn1)c1cccc(F)c1)C1(F)CN(C2CN(C3CCOCC3)C2)C1` [Compound 3399, N-((5-(5-(difluoromethyl)-1,3,4-oxadiazol-2-yl)pyridin-2-yl)methyl)-3-fluoro-N-(3-fluorophenyl)-1′-(tetrahydro-2H-pyran-4-yl)-[1,3′-biazetidine]-3-carboxamide], the IC50 [1] is reported as 31500 nM, the “HDAC6 selectivity (fold)” value [2] is reported as 1,569 fold and the IC50 [2] is reported as 20.1 nM.
For `CCN1CCC(N2CC(F)(C(=O)N(Cc3ccc(-c4nnc(C(F)F)o4)cn3)c3cccc(F)c3)C2)CC1` [Compound 3400, N-((5-(5-(difluoromethyl)-1,3,4-oxadiazol-2-yl)pyridin-2-yl)methyl)-1-(1-ethylpiperidin-4-yl)-3-fluoro-N-(3-fluorophenyl)azetidine-3-carboxamide], the IC50 [1] was 36600 nM, the “HDAC6 selectivity (fold)” value [2] was 1,695 fold and the IC50 [2] was 21.6 nM.
`CCCN1CCC(N2CC(F)(C(=O)N(Cc3ccc(-c4nnc(C(F)F)o4)cn3)c3cccc(F)c3)C2)CC1` [Compound 3401, N-((5-(5-(difluoromethyl)-1,3,4-oxadiazol-2-yl)pyridin-2-yl)methyl)-3-fluoro-N-(3-fluorophenyl)-1-(1-propylpiperidin-4-yl)azetidine-3-carboxamide] was tested, and the IC50 [1] was 44500 nM, the “HDAC6 selectivity (fold)” value [2] was 1,951 fold and the IC50 [2] was 22.8 nM.
In the case of `CCCCN1CCC(N2CC(F)(C(=O)N(Cc3ccc(-c4nnc(C(F)F)o4)cn3)c3cccc(F)c3)C2)CC1` [Compound 3402, 1-(1-butylpiperidin-4-yl)-N-((5-(5-(difluoromethyl)-1,3,4-oxadiazol-2-yl)pyridin-2-yl)methyl)-3-fluoro-N-(3-fluorophenyl)azetidine-3-carboxamide], the IC50 [1] is reported as greater than 50000 nM, the “HDAC6 selectivity (fold)” value [2] is reported as 2,403 fold and the IC50 [2] is reported as 20.8 nM.
With `CC(C)CN1CCC(N2CC(F)(C(=O)N(Cc3ccc(-c4nnc(C(F)F)o4)cn3)c3cccc(F)c3)C2)CC1` [Compound 3403, N-((5-(5-(difluoromethyl)-1,3,4-oxadiazol-2-yl)pyridin-2-yl)methyl)-3-fluoro-N-(3-fluorophenyl)-1-(1-isobutylpiperidine-4-yl)azetidine-3-carboxamide] the IC50 [1] was 26300 nM, the “HDAC6 selectivity (fold)” value [2] was 911 fold and the IC50 [2] was 28.8 nM.
With `CC(C)N1CCC(N2CC(F)(C(=O)N(Cc3ccc(-c4nnc(C(F)F)o4)cn3)c3cccc(F)c3)C2)CC1` [Compound 3404, N-((5-(5-(difluoromethyl)-1,3,4-oxadiazol-2-yl)pyridin-2-yl)methyl)-3-fluoro-N-(3-fluorophenyl)-1-(1-isopropylpiperidin-4-yl)azetidine-3-carboxamide] the IC50 [1] was 25400 nM, the “HDAC6 selectivity (fold)” value [2] was 773 fold and the IC50 [2] was 32.9 nM.
For `O=C(N(Cc1ccc(-c2nnc(C(F)F)o2)cn1)c1cccc(F)c1)C1(F)CN(C2CCN(C3CCC3)CC2)C1` [Compound 3405, 1-(1-cyclobutylpiperidin-4-yl)-N-((5-(5-(difluoromethyl)-1,3,4-oxadiazol-2-yl)pyridin-2-yl)methyl)-3-fluoro-N-(3-fluorophenyl)azetidine-3-carboxamide], the IC50 [1] was 20400 nM, the “HDAC6 selectivity (fold)” value [2] was 771 fold and the IC50 [2] was 26.5 nM.
In the case of `O=C(N(Cc1ccc(-c2nnc(C(F)F)o2)cn1)c1cccc(F)c1)C1(F)CN(C2CCN(C3COC3)CC2)C1` [Compound 3406, N-((5-(5-(difluoromethyl)-1,3,4-oxadiazol-2-yl)pyridin-2-yl)methyl)-3-fluoro-N-(3-fluorophenyl)-1-(1-(oxetan-3-yl)piperidin-4-yl)azetidine-3-carboxamide], the IC50 [1] is reported as 26600 nM, the “HDAC6 selectivity (fold)” value [2] is reported as 734 fold and the IC50 [2] is reported as 36.2 nM.
`O=C(N(Cc1ccc(-c2nnc(C(F)F)o2)cn1)c1cccc(F)c1)C1(F)CN(C2CCN(C3CCCC3)CC2)C1` [Compound 3407, 1-(1-cyclopentylpiperidin-4-yl)-N-((5-(5-(difluoromethyl)-1,3,4-oxadiazol-2-yl)pyridin-2-yl)methyl)-3-fluoro-N-(3-fluorophenyl)azetidine-3-carboxamide] was tested, and the IC50 [1] was 48000 nM, the “HDAC6 selectivity (fold)” value [2] was 2,581 fold and the IC50 [2] was 18.6 nM.
For `O=C(N(Cc1ccc(-c2nnc(C(F)F)o2)cn1)c1cccc(F)c1)C1(F)CN(C2CCN(C3CCOC3)CC2)C1` (stereo not drawn) [Compound 3408, N-((5-(5-(difluoromethyl)-1,3,4-oxadiazol-2-yl)pyridin-2-yl)methyl)-3-fluoro-N-(3-fluorophenyl)-1-(1-(tetrahydrofuran-3-yl)piperidin-4-yl)azetidine-3-carboxamide], the IC50 [1] was 37000 nM, the “HDAC6 selectivity (fold)” value [2] was 1,135 fold and the IC50 [2] was 32.6 nM.
For `O=C(N(Cc1ccc(-c2nnc(C(F)F)o2)cn1)c1cccc(F)c1)C1(F)CN(C2CCN(C3CCCCC3)CC2)C1` [Compound 3409, 1-(1-cyclohexylpiperidin-4-yl)-N-((5-(5-(difluoromethyl)-1,3,4-oxadiazol-2-yl)pyridin-2-yl)methyl)-3-fluoro-N-(3-fluorophenyl)azetidine-3-carboxamide], the IC50 [1] was greater than 50000 nM, the “HDAC6 selectivity (fold)” value [2] was 1,497 fold and the IC50 [2] was 33.4 nM.
`O=C(N(Cc1ccc(-c2nnc(C(F)F)o2)cn1)c1cccc(F)c1)C1(F)CN(C2CCN(C3CCOCC3)CC2)C1` [Compound 3410, N-((5-(5-(difluoromethyl)-1,3,4-oxadiazol-2-yl)pyridin-2-yl)methyl)-3-fluoro-N-(3-fluorophenyl)-1-(1-(tetrahydro-2H-pyran-4-yl)piperidin-4-yl)azetidine-3-carboxamide] was tested, and the IC50 [1] was 34700 nM, the “HDAC6 selectivity (fold)” value [2] was 1,343 fold and the IC50 [2] was 25.8 nM.
With `CN1CC(F)(C(=O)N(Cc2ccc(-c3nnc(C(F)F)o3)cc2F)c2ccccc2)C1` [Compound 3429, N-(4-(5-(difluoromethyl)-1,3,4-oxadiazol-2-yl)-2-fluorobenzyl)-3-fluoro-1-methyl-N-phenylazetidine-3-carboxamide] the IC50 [1] was 30900 nM, the “HDAC6 selectivity (fold)” value [2] was 421 fold and the IC50 [2] was 73.4 nM.
In the case of `CCN1CC(F)(C(=O)N(Cc2ccc(-c3nnc(C(F)F)o3)cc2F)c2ccccc2)C1` [Compound 3430, N-(4-(5-(difluoromethyl)-1,3,4-oxadiazol-2-yl)-2-fluorobenzyl)-1-ethyl-3-fluoro-N-phenylazetidine-3-carboxamide], the IC50 [1] is reported as greater than 50000 nM, the “HDAC6 selectivity (fold)” value [2] is reported as 624 fold and the IC50 [2] is reported as 80.1 nM.
With `CC(C)N1CC(F)(C(=O)N(Cc2ccc(-c3nnc(C(F)F)o3)cc2F)c2ccccc2)C1` [Compound 3431, N-(4-(5-(difluoromethyl)-1,3,4-oxadiazol-2-yl)-2-fluorobenzyl)-3-fluoro-1-isopropyl-N-phenylazetidine-3-carboxamide] the IC50 [1] was greater than 50000 nM, the “HDAC6 selectivity (fold)” value [2] was 544 fold and the IC50 [2] was 91.8 nM.
With `CC(=O)N1CC(F)(C(=O)N(Cc2ccc(-c3nnc(C(F)F)o3)cc2F)c2ccccc2)C1` [Compound 3432, 1-acetyl-N-(4-(5-(difluoromethyl)-1,3,4-oxadiazol-2-yl)-2-fluorobenzyl)-3-fluoro-N-phenylazetidine-3-carboxamide] the IC50 [1] was 29100 nM, the “HDAC6 selectivity (fold)” value [2] was 366 fold and the IC50 [2] was 79.5 nM.
